Where a SMILES comes first, the peptide text is derived from it. Bridges are numbered along the chain shown (N, C = ends). Where no end group is shown, it is not given here. [ ]: non-standard residue; d: D form. Dab = NCC[C@H](N)C(=O)O
Assays:
[1] = biological target: T1, leucine aminopeptidase (Sus scrofa, UniProt P28839); experiment: Hydrolysis kinetics in leucine aminopeptidase solution; assay type: in vitro ADME, porcine; settings: 50 mM phosphate buffer pH 7.4, 37° C., leucine aminopeptidase 25 U/ml; for half-life: pig
T1 construct: purchased Sigma, UK type III-CP (catalogue number not given); host or cells: porcine kidney
T1 sequence (P28839 1-519): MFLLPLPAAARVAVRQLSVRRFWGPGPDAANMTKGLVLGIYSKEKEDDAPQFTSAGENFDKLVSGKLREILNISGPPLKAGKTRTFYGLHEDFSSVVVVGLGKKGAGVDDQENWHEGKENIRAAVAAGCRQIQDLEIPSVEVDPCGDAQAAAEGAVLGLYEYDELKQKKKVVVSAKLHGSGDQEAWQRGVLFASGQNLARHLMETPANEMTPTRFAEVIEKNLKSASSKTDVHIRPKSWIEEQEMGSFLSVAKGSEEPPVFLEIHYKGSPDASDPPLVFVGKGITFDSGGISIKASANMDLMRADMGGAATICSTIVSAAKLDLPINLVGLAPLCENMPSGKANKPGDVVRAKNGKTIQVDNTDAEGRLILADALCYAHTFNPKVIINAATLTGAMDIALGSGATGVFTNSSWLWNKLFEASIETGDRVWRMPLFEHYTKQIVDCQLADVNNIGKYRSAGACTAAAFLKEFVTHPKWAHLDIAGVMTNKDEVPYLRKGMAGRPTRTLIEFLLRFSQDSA
Procedure: (§1) Carboxypeptidase A (EC 3.4.17.1) type I from bovine pancreas, leucine aminopeptidase (EC 3.4.11.1) type III-CP from porcine kidney, α-chymotrypsin (EC […]) from bovine pancreas, and pepsin A (EC 3.4.23.1) from porcine stomach mucosa […] were obtained from Sigma, UK.
(§2) Gradient HPLC analysis of samples from in vitro kinetic measurements performed as described below was performed using a Hewlett Packard HP 1100 HPLC system consisting of a HP 1100 Binary Pump, a HPI 100 Autosampler, a HPI 100 Column Thermostat and a HP 1100 Variable Wavelength Detector. A Merck LiChroCART column (125×4 mm I.D.) and a LiChroCART precolumn (4×4 mm I.D.) packed with Lichrospher RP-18 (5 .μum particles) was used. The column was kept at 25° C. or 75° C. and the column effluent was measured by UV detection at 215 run. Separation of the peptide conjugates or the native peptides from degradation products and constituents of the reaction solutions was accomplished using gradient elution of the column with mixtures of mobile phase A (0.1 vol % TFA in water) and mobile phase B (0.085 vol % TFA in acetonitrile) at a flow rate of 1 ml/min.
(§3) The degradation of the peptide conjugate and the corresponding native peptide were studied at 37° C. in a 50 mM phosphate buffer solution at pH 7.4 containing leucine arninopeptidase (25 U/ml) or carboxypeptidase A (1 or 25 U/ml). Experiments were initiated by addition of an aliquot (100 μl) of a stock solution (1 mg/ml) of the peptide conjugate or the native peptide to 900 μl preheated enzyme solution giving a final concentration of ˜0.1 mg/ml (10^−5-10^−4M) of the peptide conjugate or the native peptide. The peptide/enzyme solution was kept at 37° C. using a SHT200D block heater from Stuart Scientific. At appropriate time intervals, samples of 100 μl were withdrawn from the peptide/enzyme solution, mixed thoroughly with 20 μl 25% TFA in acetonitrile in order to stop the enzymatic degradation process and analysed by HPLC as described above. Half-lives (t1/2) for the peptide conjugate and the corresponding native peptide in the enzyme solutions were calculated from plots of the natural logarithm to the concentration of the residual peptide (HPLC peak heights) against time using the formula t/2=1/kobs×ln(2), where kobs is the apparent first-order rate constant for the observed degradation.

[2] = biological target: T2, carboxypeptidase A (Bos taurus, UniProt P00730); experiment: Hydrolysis kinetics in carboxypeptidase A solution; assay type: in vitro ADME, bovine; settings: 50 mM phosphate buffer pH 7.4, 37° C., carboxypeptidase A 1 U/ml
T2 construct: purchased Sigma, UK type I (catalogue number not given); host or cells: bovine pancreas
T2 sequence (P00730 111-419): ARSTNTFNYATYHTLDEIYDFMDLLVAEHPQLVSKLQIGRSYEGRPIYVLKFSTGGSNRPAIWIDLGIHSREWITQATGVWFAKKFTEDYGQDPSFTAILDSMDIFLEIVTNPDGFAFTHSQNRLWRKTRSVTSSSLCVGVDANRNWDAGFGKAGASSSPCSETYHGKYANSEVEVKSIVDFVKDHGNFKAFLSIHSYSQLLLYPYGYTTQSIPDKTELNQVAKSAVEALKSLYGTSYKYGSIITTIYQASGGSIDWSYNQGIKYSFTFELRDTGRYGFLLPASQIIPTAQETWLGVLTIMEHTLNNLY
Procedure: as §1, §2, §3

Row | Molecule | half-life [1] | half-life [2] | pseudo first-order rate constant for the degradation [2] | pseudo first-order rate constant for the degradation [1]
1 | CC[C@H](C)[C@H](NC(=O)[C@H](Cc1ccccc1)NC(=O)[C@H](CCC(=O)O)NC(=O)[C@H](CCCCN)NC(=O)[C@H](C)NC(=O)[C@H](C)NC(=O)[C@H](CCC(N)=O)NC(=O)CNC(=O)[C@H](CCC(=O)O)NC(=O)[C@H](CC(C)C)NC(=O)[C@H](Cc1ccc(O)cc1)NC(=O)[C@H](CO)NC(=O)[C@H](CO)NC(=O)[C@@H](NC(=O)[C@H](CC(=O)O)NC(=O)[C@H](CO)NC(=O)[C@@H](NC(=O)[C@H](Cc1ccccc1)NC(=O)[C@@H](NC(=O)CNC(=O)[C@H](CCC(=O)O)NC(=O)[C@H](C)NC(=O)[C@@H](N)Cc1c[nH]cn1)[C@@H](C)O)[C@@H](C)O)C(C)C)C(=O)N[C@@H](C)C(=O)N[C@@H](Cc1c[nH]c2ccccc12)C(=O)N[C@@H](CC(C)C)C(=O)N[C@H](C(=O)N[C@@H](CCCCN)C(=O)NCC(=O)N[C@@H](CCCNC(=N)N)C(=O)O)C(C)C [GLP-1(7-36)(Human)-OH, H-His-Ala-Glu-Gly-Thr-Phe-Thr-Ser-Asp-Val-Ser-Ser-Tyr-Leu -Glu-Gly-Gln-Ala-Ala-Lys-Glu-Phe-Ile-Ala-Trp-Leu-Val-Lys-Gly-Arg-OH, reference compound] | 0.367 h | 2.47 h | 0.0047 min⁻¹ | 
2 | CC[C@H](C)[C@H](NC(=O)[C@H](Cc1ccccc1)NC(=O)[C@H](CCC(=O)O)NC(=O)[C@H](CCCCN)NC(=O)[C@H](C)NC(=O)[C@H](C)NC(=O)[C@H](CCC(N)=O)NC(=O)CNC(=O)[C@H](CCC(=O)O)NC(=O)[C@H](CC(C)C)NC(=O)[C@H](Cc1ccc(O)cc1)NC(=O)[C@H](CO)NC(=O)[C@H](CO)NC(=O)[C@@H](NC(=O)[C@H](CC(=O)O)NC(=O)[C@H](CO)NC(=O)[C@@H](NC(=O)[C@H](Cc1ccccc1)NC(=O)[C@@H](NC(=O)CNC(=O)[C@H](CCC(=O)O)NC(=O)[C@H](C)NC(=O)[C@@H](N)Cc1c[nH]cn1)[C@@H](C)O)[C@@H](C)O)C(C)C)C(=O)N[C@@H](C)C(=O)N[C@@H](Cc1c[nH]c2ccccc12)C(=O)N[C@@H](CC(C)C)C(=O)N[C@H](C(=O)N[C@@H](CCCCN)C(=O)NCC(=O)N[C@@H](CCCNC(=N)N)C(=O)N[C@@H](CCCCN)C(=O)N[C@@H](CCCCN)C(=O)N[C@@H](CCCCN)C(=O)N[C@@H](CCCCN)C(=O)N[C@@H](CCCCN)C(=O)N[C@@H](CCCCN)C(=O)O)C(C)C [GLP-1(7-36)(Human)-(Lys)6-OH, H-His-Ala-Glu-Gly-Thr-Phe-Thr-Ser-Asp-Val-Ser-Ser-Tyr-Leu -Glu-Gly-Gln-Ala-Ala-Lys-Glu-Phe-Ile-Ala-Trp-Leu-Val-Lys-Gly-Arg-(Lys)6-OH] | 0.883 h | 1.45 h | 0.008 min⁻¹ | 0.013 min⁻¹
3 | CC(C)C[C@H](NC(=O)[C@H](Cc1ccccc1)NC(=O)CNC(=O)CNC(=O)[C@@H](N)Cc1ccc(O)cc1)C(=O)N[C@@H](CCN)C(=O)N[C@@H](CCN)C(=O)N[C@@H](CCN)C(=O)N[C@@H](CCN)C(=O)N[C@@H](CCN)C(=O)N[C@@H](CCN)C(=O)O [Leu-Enkephalin-(Dbu)6-OH, H-Tyr-Gly-Gly-Phe-Leu-(Dbu)6-OH] (H-YGGFL[Dab][Dab][Dab][Dab][Dab][Dab]-OH) | 0.467 h | 23.1 h | 0.005 min⁻¹ | 0.025 min⁻¹
4 | CC(C)C[C@@H]1NC(=O)[C@@H]2CCCN2C(=O)CNC(=O)[C@H](Cc2ccccc2)NC(=O)[C@H](Cc2c[nH]cn2)NC(=O)[C@@H](NC(=O)[C@H](CO)NC(=O)[C@H](Cc2ccc(O)cc2)NC(=O)[C@@H](NC(=O)CNC(=O)CNC(=O)[C@H](CCCCN)NC(=O)[C@H](CCCCN)NC(=O)[C@H](CCCCN)NC(=O)[C@H](CCCCN)NC(=O)[C@H](CCCCN)NC(=O)[C@@H](N)CCCCN)[C@@H](C)O)CSSC[C@@H](C(=O)N[C@@H](CCCCN)C(=O)N2CCC[C@H]2C(=O)N[C@@H](CCC(N)=O)C(=O)NCC(=O)NCC(=O)O)NC(=O)[C@H](C(C)C)NC(=O)[C@H](Cc2c[nH]c3ccccc23)NC(=O)[C@H]([C@@H](C)O)NC1=O [(Lys)6-EMP-1-OH, H-(Lys)6-Gly-Gly-Thr-Tyr-Ser-Cys-His-Phe-Gly-Pro-Leu -Thr-Trp-Val-Cys-Lys-Pro-Gln-Gly-Gly-OH] (H-KKKKKKGGTYSCHFGPLTWVCKPQGG-OH; disulfide 12-21) | > 24 h |  |  | 
5 | CC(C)C[C@@H]1NC(=O)[C@@H]2CCCN2C(=O)CNC(=O)[C@H](Cc2ccccc2)NC(=O)[C@H](Cc2c[nH]cn2)NC(=O)[C@@H](NC(=O)[C@H](CO)NC(=O)[C@H](Cc2ccc(O)cc2)NC(=O)[C@@H](NC(=O)CNC(=O)CNC(=O)[C@H](CCCCN)NC(=O)[C@H](CCCCN)NC(=O)[C@H](CCCCN)NC(=O)[C@H](CCCCN)NC(=O)[C@H](CCCCN)NC(=O)[C@@H](N)CCCCN)[C@@H](C)O)CSSC[C@@H](C(=O)N[C@@H](CCCCN)C(=O)N2CCC[C@H]2C(=O)N[C@@H](CCC(N)=O)C(=O)NCC(=O)NCC(=O)N[C@@H](CCCCN)C(=O)N[C@@H](CCCCN)C(=O)N[C@@H](CCCCN)C(=O)N[C@@H](CCCCN)C(=O)N[C@@H](CCCCN)C(=O)N[C@@H](CCCCN)C(=O)O)NC(=O)[C@H](C(C)C)NC(=O)[C@H](Cc2c[nH]c3ccccc23)NC(=O)[C@H]([C@@H](C)O)NC1=O [(Lys)6-EMP-1-(Lys)6-OH, H-(Lys)6-Gly-Gly-Thr-Tyr-Ser-Cys-His-Phe-Gly-Pro-Leu-Thr -Trp-Val-Cys-Lys-Pro-Gln-Gly-Gly-(Lys)6-OH] (H-KKKKKKGGTYSCHFGPLTWVCKPQGGKKKKKK-OH; disulfide 12-21) | > 100 h |  |  | 
6 | H-WAGGDASGEKEKEKE-OH [DSIP-(Lys-Glu)3-OH, H-Trp-Ala-Gly-Gly-Asp-Ala-Ser-Gly-Glu-(Lys-Glu)3-OH] | 2.42 h |  |  | 
7 | KKKKKKYGGFLKKKKKK [(Lys)6-Leu-Enkephalin-(Lys)6-OH, H-Lys6-Tyr-Gly-Gly-Phe-Leu-Lys6 OH] | > 100 h |  |  | 
8 | H-RPKPQQFFGLMKKKKKK-NH2 [Substance P-(Lys)6-NH2, H-Arg-Pro-Lys-Pro-Gln-Gln-Phe-Phe-Gly-Leu-Met-Lys6 -NH2] | 1.1 h | 2.1 h | 0.0055 min⁻¹ | 0.011 min⁻¹
9 | WAGGDASGE [DSIP, H-Trp-Ala-Gly-Gly-Asp-Ala-Ser-Gly-GIu-OH, reference compound] | < 0.333 h |  |  | 
10 | H-YGGFLKEEEKK-OH [Leu-Enkephalin-Lys-(Glu)3-(Lys)2-OH, H-Tyr-Gly-Gly-Phe-Leu-Lys-(Glu)3-(Lys)2-OH] | 0.095 h | 14.4 h | 0.0008 min⁻¹ | 0.12 min⁻¹
11 | H-KKKKKKYGGFL-OH [(Lys)6-Leu-Enkephalin-OH, H-Lys6 Tyr-Gly-Gly-Phe-Leu-OH] | 0.45 h |  |  | 0.026 min⁻¹

From US7414107B2, “Pharmacologically active peptide conjugates having a reduced tendency towards enzymatic hydrolysis” (priority 1998, dated 2008)
